Source: US5049673A, “Fluorescent indicator dyes for calcium working at long wavelengths” (The Regents of the University of California, priority 1987, dated 1991)
Where two headings read alike, the source gives them in different places.

Experiments:
[1] = cited from earlier work
[2] = parent compounds, literature; read-out: Ca^2+ dissociation constant of parent compounds; cited from earlier work
[3] = for Kd: read-out: Effective dissociation constant Kd for Ca^2+, pH 7.0-7.5, ionic strengths 0.1-0.15
Procedure: For measurement of Ca^2+ dissociation constants at pH 7.0-7.5, free [Ca^2+ ] levels were controlled by Ca^2+ /EGTA, Ca^2+ /HEEDTA and Ca^2+ /NTA buffers (see ref. 12) The apparent dissociation constant for the Ca^2+ EGTA complex was taken as 327 nM at pH 7.03 in 100 mM KCl, 20° C. The logarithms of the apparent dissociation constants for the Ca^2+ HEEDTA and Ca^2+ NTA complexes were calculated to be 1.70 - pH and 3.41 - pH, respectively, at room temperature in 0.1 M KCl. To test the pH dependence of the apparent Ca^2+ -dissociation constant of fluo-3 (see FIG. 4), it was necessary to vary pH from 5.6 to 8 while maintaining constant free Ca^2+. EGTA, HEEDTA, and NTA are too pH-dependent to cover this pH range, so dibromo-BAPTA (chelator 2c of ref 13) was used instead. […] To compensate for that small dependence, the pH titration was started from pH 5.6 with the appropriate amount of Ca^2+ in the buffer. Then, at each higher pH, the appropriate small addition of CaCl2 was made to compensate for the increase in the effective Ca^2+ affinity of the dibromo-BAPTA.

[4] = Absorbance and fluorescence properties in the presence and absence of Ca2+; assay type: physicochemical
Procedure: FIG. 4. Excitation (A) and emission (B) spectra for fluo-3 at 22°±2° C. in buffers with free Ca^2+ values ranging from <1 nM to 58 microM. The titration was done starting with 3.5 ml of 100 mM KCl, 10 mM K-MOPS, 10 mM K2 H2 EGTA, 15 microM fluo-3, pH 7.03. The "O" Ca spectrum was recorded, then to reach n mM CaEGTA, (10-n) mM EGTA, n=1-10, aliquots of 3.5/(11-n) ml were iteratively discarded and replaced by equal volumes of 100 mM KCl, 10 mM K-MOPS, 10 mM K2 CaEGTA, 15 microM fluo-3, pH 7.0. After each iteration the pH (range 6.99 to 7.05) and spectra were recorded; each spectrum is labeled by the calculated free Ca^2+ in micromolar. The excitation and emission bandwidths were 1.9 nm and 4.6 nm respectively. All spectra have been normalized with respect to the peak of the 58 microM (n=10) curve. In A, emission was collected at 530 nm, and the excitation was corrected for lamp and monochromator characteristics using a rhodamine B quantum counter. In B, excitation was at 490 nm, and the emission spectrum is uncorrected for monochromator and detector sensitivity. The slightly low amplitude of the curve at 3.6 microM [Ca^2+ ] is probably due to a small error in resetting the excitation monochromator to 490 nm.
(§1) FIG. 6. The product of fluorescence quantum efficiency and extinction coefficient vs. free [Ca^2+ ] (note log axes for both) for quin-2, fura-2, indo-1, rhod-2, and fluo-3. All data are for room temperature, 0.1 M KCl, no added Mg^2+. […] The curve for fluo-3 used the data of Table I with extinction coefficients of 7.5×10^4 to 8.35×10^4 at 506 nm; the curve for rhod-2 assumed a Ca^2+ -independent extinction coefficient of 1×10^5 M^-1 cm^-1.
Examples of the synthetic routes than can be used to produce the new dyes of the present invention are outlined in FIGS. 2 and 3. Full descriptions of the reaction conditions are described below under the section entitled Compound Synthesis. Optical spectra were measured as described by Grynkiewicz, et al. (1985). (See ref. 9.) Quantum efficiencies of fluorescence were obtained (see ref. 10) by comparing the integral of the corrected emission spectrum of the test sample with that of a solution of rhodamine B in ethanol, quantum efficiency assumed to be 0.97 (see ref. 11), or fluorescein in 0.1 M NaOH, quantum efficiency 0.91 (see ref. 10). The concentration of the reference dye was adjusted to match the absorbance of the test sample at the wavelength of excitation.
The absorbance and fluorescence properties for the new indicators in the presence and absence of Ca^2+ are shown in Table I. The absorbance spectra were much as one would expect for rhodamine or fluorescein chromophores, though extinction coefficients (not shown) were often low in the dyes as initially isolated. Because fluo-3 appeared to be a very useful indicator compound, extra effort was expended in its purification. Eventually, quite respectable extinction coefficients were obtained, 7.9×10^4 and 8.3×10^4 M^-1 cm^-1 at 503 and 506 nm, respectively for free and Ca^2+ -bound fluo-3. Ca^2+ binding was expected to shift the absorbance maxima to longer wavelengths,since it would prevent the BAPTA amino nitrogen from donating electron density to the 9-position of the xanthene. Electron-withdrawal and donation to the central carbon of triphenylmethane dyes are known to shift absorbance peaks to longer and shorter wavelengths, respectively (see ref. 19). Indeed, Ca^2+ binding caused red shifts, but of very small magnitude, 1-3 nm, and with little change in peak height.
Fluo-3 has a visibly pinkish tinge because its chlorine atoms shift its spectra to wavelengths slightly longer than those of fluo-2, just as 2,7-dichlorofluorescein is bathochromically shifted from fluorescein. […] Thus the Ca^2+ complex of fluo-3 fluoresced 35- to 40-fold more brightly than the Ca^2+ -free dye (see FIG. 4). This degree of enhancement is the greatest yet reported for a fluorescent Ca^2+ indicator. […]

[5] = Photochemical stability, xenon arc illumination of air-saturated solutions; assay type: physicochemical
Description: Fluo-3 was briefly checked for photochemical stability. […] Since the biological usability of fluorescein is well established, the photochemical resistance of fluo-3 would seem to be adequate if not outstanding.

[6] = Mg2+ dissociation constant in Mg2+/EGTA buffers
Procedure: Free [Mg2+] was controlled by Mg^2+ /EGTA buffers assuming an apparent dissociation constant for the Mg^2+ /EGTA complex (including its monoprotonated form) of 6 mM at pH 7.60, 0.12 M ionic strength, 20°, as calculated from the data of Martell & Smith (see ref. 12).

[7] = Product of fluorescence quantum efficiency and extinction coefficient vs free [Ca2+] (FIG. 6); assay type: physicochemical
Description: as §1
Whereas fura-2 and indo-1 were clearly much more intensely fluorescent than quin-2, enabling measurements with much less added dye and Ca^2+ buffering, comparison of the brightness of the new dyes with that of fura-2 and indo-1 is more complex of the different operating wavelengths. The simplest measure of the intrinsic brightness of a fluorophore is the product of its emission quantum efficiency and its extinction coefficient at the appropriate excitation wavelength (see FIG. 6). At the present time, extinction coefficients are known only for fluo-3, though one may estimate the values for the other indicators from purified model xanthene dyes (9-10×10^4 M^-1 cm^31 1). For fluo-3, the quantum efficiency×extinction coefficient ranges from 3×10^3 to 1.5×10^4 M^-1 cm^-1 for Ca^2+ values from 10^-7 M up to saturation, slightly less than the corresponding values for fura-2 excited at 340 nm, 5×10^3 to 1.6× 10^4 M^-1 cm^-1 (see FIG. 6). However, it is easier to generate higher excitation intensities at longer wavelengths, and autofluorescence will be lower, so the actual concentrations of dye needed to overcome dark current and autofluorescence may be fairly similar for the two families. On the other hand, the relatively small separation between excitation and emission peaks of the new dyes makes more stringent demands on monochromators and filters to exclude scattered light.
The Ca^2+ affinities of the new dyes are two to ten-fold weaker than those of their UV-excited predecessors. […]

[8] = cited from earlier work; for Kd: room temperature, 0.1 M KCl, no added Mg^2+, read-out: Ca^2+ dissociation constant (Kd) used for FIG. 6

SMILES: O=c1ccc2c(-c3ccccc3)c3ccc(O)cc3oc-2c1 [9-phenylfluorone]
- Quantum efficiency of model compound [1]: 0.21

SMILES: O=C(O)CN(CC(=O)O)c1ccccc1OCCOc1ccccc1N(CC(=O)O)CC(=O)O [BAPTA, 1,2-bis(2-amino-phenoxy)ethane N,N,N',N'-tetraacetic acid]
- Kd [2]: 0.11 µM

SMILES: Cc1ccc(N(CC(=O)O)CC(=O)O)c(OCCOc2cc(-c3c4ccc(=O)cc-4oc4cc(O)ccc34)c(O)cc2N(CC(=O)O)CC(=O)O)c1 [fluo-1, 9-(6-hydroxy-4-bis(carboxymethyl)amino-3-(2-(2-bis(carboxymethyl)amino-5-methylphenoxy)ethoxy)phenyl)-6-hydroxy-3H-xanthen-3-one]
- pH dependence of fluorescence: some pH dependence
- Kd [3]: 0.7 µM
- Lowering of Ca^2+ affinity by hydroxy group vs unsubstituted rhod-2 and fluo-2 ([3]; vs rhod-2 and fluo-2): more than two-fold
- Fluorescence maxima, emission, with excess Ca [4]: 521 nm
- Fluorescence maxima, excitation, with excess Ca [4]: 499 nm
- Fluorescence quantum efficiency, excess Ca [4]: .014
- Fluorescence ratio, excess vs. zero Ca [4]: 3.3
- Fluorescence quantum efficiency, zero Ca [4]: .0042

SMILES: Cc1ccc(N(CC(=O)O)CC(=O)O)c(OCCOc2cc(-c3c4ccc(=O)cc-4oc4cc(O)ccc34)ccc2N(CC(=O)O)CC(=O)O)c1 [fluo-2, 9-(4-bis(carboxymethyl)amino-3-(2-(2-bis(carboxymethyl)amino-5-methylphenoxy)ethoxy)phenyl)-6-hydroxy-3H-xanthen-3-one]
- Fluorescence quenching on titration from pH 7.7 to 4.1 (absence of Ca^2+): almost completely quenched
- Ratio between the brightness of the deprotonated and the protonated species (absence of Ca^2+): 67
- Kd [3]: 0.37 µM
- Fluorescence maxima, emission, with excess Ca [4]: 518 nm
- Fluorescence maxima, excitation, with excess Ca [4]: 493 nm
- Fluorescence quantum efficiency, excess Ca [4]: .125
- Fluorescence ratio, excess vs. zero Ca [4]: 31
- Fluorescence quantum efficiency, zero Ca [4]: .004

SMILES: Cc1ccc(N(CC(=O)O)CC(=O)O)c(OCCOc2cc(-c3c4cc(Cl)c(=O)cc-4oc4cc(O)c(Cl)cc34)ccc2N(CC(=O)O)CC(=O)O)c1 [fluo-3, 9-(4-bis(carboxymethyl)amino-3-(2-(2-bis(carboxymethyl)amino-5-methylphenoxy)ethoxy)phenyl)-2,7-dichloro-6-hydroxy-3 H-xanthen-3-one]
- Amino pKa, independent rough confirmation from intermediate [Ca^2+] curves (100 mm kcl, tris-mops): about 6.2
- pKa of amino nitrogen (100 mm kcl, tris-mops): about 6.2
- pKa of chromophore (absorbance spectrum or fluorescence amplitude of Ca^2+-complex) (100 mm kcl, tris-mops): 4.5-4.6
- Increase of fluorescence of Ca^2+-free dye, pH 8 to pH 5 (Ca^2+-free, maximal): ≤ 3 fold
- Effectiveness of intermediate Ca^2+ at enhancing fluorescence at pH 6.1-6.2 vs pH ~8 (pH about 6.1-6.2 vs pH ~8): about half as effective
- Photobleaching rate, Ca^2+ complex ([5]; Ca^2+ complex): bleached about half as quickly
- Photobleaching rate, Ca^2+-free ([5]; Ca^2+-free): bleached at about the same rate as ordinary fluorescein anion
- Effect of Mg^2+ binding on chelator fluorescence [6]: relatively little effect
- Fluorescence enhancement by Mg^2+ binding ([6]; Mg^2+ binding): about 1.4 fold
- Kd ([6]; read-out: Mg^2+ dissociation constant, 25°, 0.1-0.15 M ionic strength): 9000 µM
- Effect of added chlorines on Ca^2+ affinity [3]: very little effect
- Kd [3]: 0.45 µM
- Extinction coefficient, free dye ([4]; 503 nm, free): 79000 M⁻¹ cm⁻¹
- Extinction coefficient, Ca^2+-bound dye ([4]; 506 nm, Ca^2+-bound): 83000 M⁻¹ cm⁻¹
- Fluorescence enhancement, Ca^2+ complex vs Ca^2+-free dye ([4]; Ca^2+ complex vs free dye): 40 fold
- Fluorescence maxima, emission, with excess Ca [4]: 526 nm
- Fluorescence maxima, excitation, with excess Ca [4]: 506 nm
- Fluorescence quantum efficiency, excess Ca [4]: .183
- Fluorescence ratio, excess vs. zero Ca [4]: 36-40
- Fluorescence quantum efficiency, zero Ca [4]: .0051
- [Ca^2+] giving double the fluorescence at zero [Ca^2+] [7]: 11 nM
- Conversion to Ca^2+ complex at 11 nM [Ca^2+] ([7]; 11 nM [Ca^2+]): 2.5%
- Brightness of Ca^2+ complex relative to free dye (in words) ([7]; Ca^2+ complex vs free dye): forty-fold brighter

SMILES: O=C1OC2(c3ccc(O)cc3Oc3cc(O)ccc32)c2ccccc21 [fluorescein]
- Quantum efficiency of reference dye in 0.1 M NaOH ([1]; 0.1 M NaOH): 0.91

SMILES: Cc1ccc(N(CC(=O)O)CC(=O)O)c(OCCOc2cc(-c3cc4ccc(C(=O)O)cc4[nH]3)ccc2N(CC(=O)O)CC(=O)O)c1 [indo-1]
- Kd [8]: 0.25 µM

SMILES: COc1cc(N(CC(=O)O)CC(=O)O)c2nc(COc3cc(C)ccc3N(CC(=O)O)CC(=O)O)ccc2c1 [quin-2, 2-[[2-[bis(carboxymethyl)amino]-5-methylphenoxy]-6-methoxy-8-bis(carboxymethyl)amino]quinolline]
- Extinction coefficient at 339 nm ([8]; 339 nm, independent of Ca^2+): 4600 M⁻¹ cm⁻¹
- Kd [8]: 0.078 µM

SMILES: Cc1ccc(N(CC(=O)O)CC(=O)O)c(OCCOc2cc(-c3c4ccc(=[N+](C)C)cc-4oc4cc(N(C)C)ccc34)ccc2N(CC(=O)O)CC(=O)O)c1 [rhod-2]
- Kd [3]: 1 µM
- Fluorescence maxima, emission, with excess Ca [4]: 576 nm
- Fluorescence maxima, excitation, with excess Ca [4]: 553 nm
- Fluorescence quantum efficiency, excess Ca [4]: .102
- Fluorescence ratio, excess vs. zero Ca [4]: 3.4
- Fluorescence quantum efficiency, zero Ca [4]: .03

SMILES: CCN(CC)c1ccc2c(-c3ccccc3C(=O)O)c3ccc(=[N+](CC)CC)cc-3oc2c1 [rhodamine B]
- Quantum efficiency of reference dye in ethanol ([1]; in ethanol): 0.97
